Patent US11780845B2 (Relay Therapeutics, Inc., priority 2019, dated 2023)
pIC50: −log10 of the molar value.

How the values were obtained:
FGFR2 = FGFR2 (Homo sapiens (Human), UniProt P21802); assay: Biochemical FGFR2 Caliper assay
SNU-16 = assay: Cell SNU-16 assay; type: cell-based; conditions: Homo sapiens, SNU-16, SNU-16 cells

Sequence of FGFR2 (P21802 22-821): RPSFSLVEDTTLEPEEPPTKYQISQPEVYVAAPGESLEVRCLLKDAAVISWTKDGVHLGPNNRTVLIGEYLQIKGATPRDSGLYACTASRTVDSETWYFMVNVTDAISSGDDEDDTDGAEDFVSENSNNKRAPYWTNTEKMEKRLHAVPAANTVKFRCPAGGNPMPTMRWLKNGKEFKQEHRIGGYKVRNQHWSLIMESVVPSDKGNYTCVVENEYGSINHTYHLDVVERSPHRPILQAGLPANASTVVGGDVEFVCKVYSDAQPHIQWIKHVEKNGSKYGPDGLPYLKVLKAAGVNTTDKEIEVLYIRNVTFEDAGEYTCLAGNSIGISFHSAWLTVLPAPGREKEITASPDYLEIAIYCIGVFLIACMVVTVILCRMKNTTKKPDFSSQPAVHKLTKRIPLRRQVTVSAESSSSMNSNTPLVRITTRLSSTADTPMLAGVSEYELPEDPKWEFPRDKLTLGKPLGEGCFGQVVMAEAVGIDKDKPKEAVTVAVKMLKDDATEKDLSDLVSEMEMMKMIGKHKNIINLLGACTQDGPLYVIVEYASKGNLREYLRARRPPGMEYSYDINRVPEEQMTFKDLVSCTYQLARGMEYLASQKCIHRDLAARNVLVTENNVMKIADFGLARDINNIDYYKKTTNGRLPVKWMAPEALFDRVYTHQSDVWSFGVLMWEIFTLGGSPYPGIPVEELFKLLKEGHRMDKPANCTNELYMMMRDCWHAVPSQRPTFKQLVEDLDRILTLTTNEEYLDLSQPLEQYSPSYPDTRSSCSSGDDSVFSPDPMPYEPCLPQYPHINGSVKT

Row | pIC50 (FGFR2) | pIC50 (SNU-16) | SMILES
1 | 6.60 to 7.00 | ≥ 7.00 | C=C(C)C(=O)Nc1ccc(-c2c(C3=CC[C@]4(CC3)Cc3ccc(OC)nc3C4=O)c3c(N)ncnc3n2C)cc1 [Example 1337]
2 | 4.00 to 6.00 | 4.00 to 6.00 | C=C(C)C(=O)Nc1ccc(-c2c(C3=CC[C@@]4(CC3)Cc3ccc(OC)nc3C4=O)c3c(N)ncnc3n2C)cc1 [Example 1338]
3 | > 7.00 | 6.00 to 6.60 | C#Cc1cc(C)c(-c2c(C3=CC[C@@H](C(=O)N4CCCC45CC5)CC3)c3c(N)ncnc3n2C)cn1 [Example 1341]
4 | > 7.00 | 6.00 to 6.60 | C#Cc1nc2cc(-c3c(C4=CC[C@H](C(=O)N5CCC[C@H]5COC)CC4)c4c(N)ncnc4n3C)ccc2[nH]1 [Example 1346]
5 | > 7.00 | ≥ 7.00 | C#Cc1cc(C)c(-c2c(C3=CC[C@@H](C(=O)N4CCC[C@H]4C)CC3)c3c(N)ncnc3n2C)c(F)n1 [Example 1347]
6 | > 7.00 | ≥ 7.00 | C#Cc1cc(OC)c(-c2c(C3=CC[C@@H](C(=O)N4CCC[C@H]4C)CC3)c3c(N)ncnc3n2C)cn1 [Example 1354]
7 | > 7.00 | ≥ 7.00 | C#Cc1cc(OC)c(-c2c(C3=CC[C@H](C(=O)N4CCC[C@H]4C)CC3)c3c(N)ncnc3n2C)cn1 [Example 1355]
8 | > 7.00 | ≥ 7.00 | C#Cc1cnc(-c2c(-c3ccc(Oc4nccc(C)n4)c(F)c3)c3c(N)ncnc3n2C)c(C)n1 [Example 1358]
9 | > 7.00 | ≥ 7.00 | C#Cc1cc(C)c(-c2c(-c3ccc(Oc4nc(C)cc(C)n4)c(F)c3)c3c(N)ncnc3n2C)cn1 [Example 1368]
10 | > 7.00 | ≥ 7.00 | C#Cc1nc2cc(-c3c(C4=CC[C@@H](C(=O)N5CCCC5)CC4)c4c(N)ncnc4n3C)ccc2n1C [Example 1369]
11 | 6.60 to 7.00 | 6.60 to 7.00 | C=CC(=O)NC1CC=C(c2c(-c3ccc(Oc4nccc(C)n4)c(F)c3)c3c(N)ncnc3n2C)CC1 (stereo not drawn) [Example 1370]
12 | 6.00 to 6.60 | 6.60 to 7.00 | COCC#Cc1cc(C)c(-c2c(-c3ccc(Oc4nccc(C)n4)c(F)c3)c3c(C)ncnc3n2C)cn1 [Example 1374]
13 | 6.00 to 6.60 | 6.60 to 7.00 | C=CC(=O)N[C@@H]1CC=C(c2c(-c3ccc(Oc4nccc(C)n4)c(F)c3)c3c(N)ncnc3n2C)CC1 [Example 1376]
14 | 6.00 to 6.60 | 6.00 to 6.60 | C=CC(=O)N[C@H]1CC=C(c2c(-c3ccc(Oc4nccc(C)n4)c(F)c3)c3c(N)ncnc3n2C)CC1 [Example 1377]
15 | 4.00 to 6.00 | 4.00 to 6.00 | COC/C=C/c1cc(C)c(-c2c(-c3ccc(Oc4nccc(C)n4)c(F)c3)c3c(N)ncnc3n2C)cn1 [Example 1378]
16 | 6.00 to 6.60 | 6.00 to 6.60 | C#Cc1cc(C)c(-c2cn3ncnc(N)c3c2C2=CC[C@@H](C(=O)N3CCC[C@H]3C)CC2)cn1 [Example 1380]
17 | > 7.00 | ≥ 7.00 | COCC#Cc1cc(C)c(-c2c(C3=CC[C@H](C(=O)N4CCC[C@H]4C)CC3)c3c(N)ncnc3n2C)cn1 [Example 1382]
18 | 6.00 to 6.60 | 6.00 to 6.60 | COCC#Cc1cc(C)c(-c2c(C3=CC[C@@H](C(=O)N4CCC[C@H]4C)CC3)c3c(N)ncnc3n2C)cn1 [Example 1383]
19 | > 7.00 | ≥ 7.00 | COCC#Cc1cc(C)c(-c2c(-c3ccc(Oc4nccc(C)n4)cc3)c3c(N)ncnc3n2C)cn1 [Example 1386]
20 | 4.00 to 6.00 | 4.00 to 6.00 | C#Cc1cc(C)c(-c2cn3ncnc(N)c3c2C2=CC[C@H](C(=O)N3CCC[C@H]3C)CC2)cn1 [Example 1387]
21 | > 7.00 | ≥ 7.00 | C#Cc1cc2c(cn1)-c1c(-c3ccc(Oc4nccc(C)n4)cc3)c3c(N)ncnc3n1CCC2 [Example 1391]
22 | 4.00 to 6.00 | 4.00 to 6.00 | C#Cc1cc(C)c(-c2c(C3=CC[C@@]4(CC3)Cc3ccc(C)nc3O4)c3c(C)ncnc3n2C)cn1 [Example 1392]
23 | 4.00 to 6.00 | 4.00 to 6.00 | C#Cc1cc(C)c(-c2c(C3=CC[C@@]4(CC3)Cc3ccc(C)nc3O4)c3c(N)ncnc3n2C)cn1 [Example 1393]
24 | 6.60 to 7.00 | 6.60 to 7.00 | C#Cc1cc(C)c(-c2c(C3=CC[C@@]4(CC3)Cc3ccc(C)nc3C4=O)c3c(N)ncnc3n2C)cn1 [Example 1394]
25 | 6.00 to 6.60 | 4.00 to 6.00 | C#Cc1cc(C)c(-c2c(C3=CC[C@]4(CC3)Cc3ccc(C)nc3O4)c3c(C)ncnc3n2C)cn1 [Example 1396]
26 | > 7.00 | ≥ 7.00 | C#Cc1cc(C)c(-c2c(C3=CC[C@]4(CC3)Cc3ccc(C)nc3C4=O)c3c(N)ncnc3n2C)cn1 [Example 1398]
27 | > 7.00 | 6.60 to 7.00 | C#Cc1cc(C)c(-c2c(C3=CC[C@]4(CC3)Cc3ccc(C)nc3O4)c3c(N)ncnc3n2C)cn1 [Example 1399]

The remaining lines, values behind:

Row | SMILES | pIC50 (FGFR2) | pIC50 (SNU-16)
28 | C#Cc1ncc(-c2c(-c3ccc(Oc4nccc(C)n4)c(F)c3)c3c(N)ncnc3n2C)c(OC)c1F [Example 1336] | > 7.00 | ≥ 7.00
29 | C=C(C)C(=O)Nc1ccc(-c2c(-c3ccc4ncnn4c3)c3c(N)ncnc3n2C)cc1 [Example 1343] | 4.00 to 6.00 | 4.00 to 6.00
30 | C=C(C)C(=O)Nc1ccc(-c2c(-c3ccc4nccn4c3)c3c(N)ncnc3n2C)cc1 [Example 1345] | 4.00 to 6.00 | 4.00 to 6.00
31 | C=C(C)C(=O)Nc1ccc(-c2c(-c3ccn4ncnc4c3)c3c(N)ncnc3n2C)cc1 [Example 1350] | 4.00 to 6.00 | 4.00 to 6.00
32 | C=C(C)C(=O)Nc1ccc(-c2c(-c3cnc4nncn4c3)c3c(N)ncnc3n2C)cc1 [Example 1351] | 4.00 to 6.00 | 4.00 to 6.00
33 | C=Cc1ccc(-c2c(-c3ccc4nn[nH]c4c3)c3c(N)ncnc3n2C)cn1 [Example 1352] | > 7.00 | ≥ 7.00
34 | C#Cc1ncc(-c2c(-c3ccc(Oc4nccc(C)n4)c(F)c3)c3c(N)ncnc3n2C)c(C)c1OC [Example 1353] | > 7.00 | ≥ 7.00
35 | C#Cc1cc(C)c(-c2c(-c3ccc(Oc4nccc(C)n4)c(F)c3)c3c(Cl)ncnc3n2C)cn1 [Example 1356] | > 7.00 | ≥ 7.00
36 | C#Cc1nc2cc(-c3c(-c4ccc(Oc5nccc(C)n5)c(F)c4)c4c(N)ncnc4n3C)ccc2n1C [Example 1359] | > 7.00 | ≥ 7.00
37 | C#Cc1cnc2cc(-c3c(-c4ccc(Oc5nccc(C)n5)c(F)c4)c4c(N)ncnc4n3C)ccc2n1 [Example 1363] | > 7.00 | ≥ 7.00
38 | C#Cc1nc2cc(-c3c(-c4ccc(Oc5nccc(C)n5)c(F)c4)c4c(C)ncnc4n3C)ccc2[nH]1 [Example 1364] | > 7.00 | ≥ 7.00
39 | C#Cc1ncc(-c2c(-c3ccc(Oc4nccc(C)n4)c(F)c3)c3c(N)ncnc3n2C)c(C)c1C [Example 1365] | > 7.00 | ≥ 7.00
40 | C=C(C)C(=O)Nc1ccc(-c2c(-c3ccc(-c4ccccc4O)nc3)c3c(N)ncnc3n2C)cc1 [Example 1371] | 4.00 to 6.00 | 6.00 to 6.60
41 | C=C(C)C(=O)Nc1ccc(-c2c(-c3ccc(-c4cccc(O)c4)nc3)c3c(N)ncnc3n2C)cc1 [Example 1372] | 4.00 to 6.00 | 4.00 to 6.00
42 | C=C(C)C(=O)Nc1ccc(-c2c(-c3ccc(-c4noc(C5CC5)n4)c(O)c3)c3c(N)ncnc3n2C)cc1 [Example 1373] | > 7.00 | 6.60 to 7.00
43 | C#Cc1cc(F)c(-c2c(-c3ccc(Oc4nccc(C)n4)c(F)c3)c3c(C)ncnc3n2C)cn1 [Example 1375] | > 7.00 | ≥ 7.00
44 | C#Cc1ncc2ccc(-c3c(-c4ccc(Oc5nccc(C)n5)c(F)c4)c4c(N)ncnc4n3C)cc2n1 [Example 1379] | 6.60 to 7.00 | ≥ 7.00

Row | SMILES | pIC50 (FGFR2) | pIC50 (SNU-16)
45 | C#Cc1ncc(-c2c(-c3ccc(Oc4nccc(C)n4)c(F)c3)c3c(C)ncnc3n2C)cc1OC [Example 1381] | 6.60 to 7.00 | ≥ 7.00
46 | C#Cc1cnc2ccc(-c3c(-c4ccc(Oc5nccc(C)n5)c(F)c4)c4c(N)ncnc4n3C)cc2n1 [Example 1384] | > 7.00 | 6.60 to 7.00
47 | C#Cc1ncc2cc(-c3c(-c4ccc(Oc5nccc(C)n5)c(F)c4)c4c(N)ncnc4n3C)ccc2n1 [Example 1385] | > 7.00 | ≥ 7.00
48 | C#Cc1nc2cc(-c3c(-c4ccc(Oc5nccc(C)n5)c(F)c4)c4c(N)ncnc4n3C)c(F)cc2n1C [Example 1388] | > 7.00 | ≥ 7.00
49 | C=C(C)C(=O)Nc1ccc(-c2c(-c3ccc(-c4cccc(O)c4)c(C#N)c3)c3c(N)ncnc3n2C)cc1 [Example 1389] | 4.00 to 6.00 | 6.00 to 6.60
50 | C=C(C)C(=O)Nc1ccc(-c2c(-c3ccc4[nH]ncc4c3)c3c(N)ncnc3n2C)cc1 [Example 1390] | 4.00 to 6.00 | 4.00 to 6.00
51 | C#Cc1nc2ccc(-c3c(-c4ccc(Oc5nccc(C)n5)c(F)c4)c4c(N)ncnc4n3C)cc2n1C [Example 1395] | > 7.00 | ≥ 7.00
52 | C#Cc1ncc(-c2c(-c3ccc(Oc4nccc(C)n4)c(F)c3)c3c(C)ncnc3n2C)c(C)c1OC [Example 1397] | 6.00 to 6.60 | ≥ 7.00
53 | C#Cc1cc(C)c(-c2c(-c3ccc(Oc4nccc(C)n4)c(F)c3)c3c(C)ncnc3n2C)c(F)n1 [Example 1400] | > 7.00 | ≥ 7.00
54 | C#Cc1cc(C)c(-c2c(-c3ccc(Oc4nccc(C)n4)c(F)c3)c3c(Cl)ncnc3n2C)c(F)n1 [Example 1401] | > 7.00 | ≥ 7.00
55 | C#Cc1cc2cc(-c3c(-c4ccc(Oc5nccc(C)n5)c(F)c4)c4c(N)ncnc4n3C)ccc2cn1 [Example 1402] | 4.00 to 6.00 | 4.00 to 6.00
56 | C#Cc1cc(OC)c(-c2c(-c3ccc(Oc4nccc(C)n4)c(F)c3)c3c(Cl)ncnc3n2C)cn1 [Example 1403] | > 7.00 | ≥ 7.00
57 | C#Cc1cc2ccc(-c3c(-c4ccc(Oc5nccc(C)n5)c(F)c4)c4c(N)ncnc4n3C)cc2cn1 [Example 1404] | 6.00 to 6.60 | 6.00 to 6.60
58 | C#Cc1ccc2cc(-c3c(-c4ccc(Oc5nccc(C)n5)c(F)c4)c4c(N)ncnc4n3C)ccc2n1 [Example 1405] | > 7.00 | ≥ 7.00
59 | C#Cc1cc(C)c(-c2c(-c3ccc(Oc4nccc(C)n4)c(F)c3)c3c(C)ncnc3n2C)c(C)n1 [Example 1406] | > 7.00 | ≥ 7.00
60 | C=C(C)c1ccc(-c2c(-c3ccc4nn[nH]c4c3)c3c(N)ncnc3n2C)cn1 [Example 1407] | 6.00 to 6.60 | 6.00 to 6.60
